Source: patent US20210322508A1, “PEPTIDES AND COMPOSITIONS FOR TARGETED TREATMENT AND IMAGING” (SIGNABLOK, INC., priority 2018, published 2021)
Residues, ends and D or L forms follow the SMILES beside them.

What was measured:
[1] = test system: AsPC-1, BxPC-3 and Capan-1 xenograft tumors; assay: Human PC xenograft mouse models: tumor growth, survival, tolerability; type: in vivo; settings: free peptides i.p. once daily 5 days per week at indicated doses
Protocol: (§1) Mice were monitored daily and tumor measurements were taken along the length and width using Vernier calipers twice weekly until sacrifice. Tumor volumes were calculated using a modified ellipsoidal formula: (Length×Width^2)/2.
Results are expressed as the mean±SEM.
as §1
Mice were monitored daily and tumor measurements were taken along the length and width using Vernier calipers twice weekly until sacrifice.

[2] = Mouse tolerability studies; type: in vivo; settings: female, C57BL/6, mouse, in vivo, ip
Protocol: Naïve, female C57BL/6 mice at 8 to 10 weeks of age (18 to 21 g) from the Jackson Laboratory were used. […] Clinical observations and body weights were made twice daily.
Naïve, female C57BL/6 mice at 8 to 10 weeks of age (18 to 21 g) from the Jackson Laboratory were used. Animals were randomly grouped (5 mice per group) and i.p. injected with 400 mg/kg G-HV21, G-KV21 or G-TE21. Clinical observations and body weights were made twice daily.

mouse lipoproteins = assay: ultracentrifugation of mouse serum with added rho B-labeled peptides; settings: for behaviour on ultracentrifugation of delipoproteinized mouse serum: rho B-labeled peptide added to delipoproteinized mouse serum; for behaviour on ultracentrifugation of whole mouse serum: rho B-labeled peptide added to whole mouse serum
H292 and A549 xenografts = settings: for tumor growth: free peptides i.p. at indicated doses
Protocol: Animal efficacy studies were performed using female 6-8 week old NU/J mice from the Jackson Laboratory (Bar Harbor, Me.). Animals were handled as specified in the USDA Animal Welfare Act (9 CFR, Parts 1, 2, and 3) and as described in the Guide for the Care and Use of Laboratory Animals from the National Research Council. Human lung carcinoma cell lines H292 and A549 were obtained from ATCC. Tumor cells in culture were harvested and resuspended in a 1:1 ratio of RPMI 1640 and Matrigel (BD Biosciences, San Jose, Calif.). NSCLC xenografts were established by injecting subcutaneously into the right flanks 5×10^6 viable cells per mouse. Tumor volumes were calculated with caliper measurements using the formula V=π/6 (length×width×width). […] All tested formulations were intraperitoneally (i.p.) injected at indicated doses and administration schedule. Clinical observations, body weights and tumor volume measurements were made 3 times weekly. Tumor volumes were analyzed using repeated measures ANOVA followed by Bonferroni test. Data points were represented as mean tumor volume±SEM. Antitumor effects were expressed as the percentage of T/C (treated versus control), dividing the tumor volumes from treatment groups with the control groups and multiplied by 100. According to the National Cancer Institute (NCI) standards (see e.g., Johnson, et al. Br J Cancer 2001, 84:1424-1431), a % T/C≤42 is indicative of antitumor activity. At the end of the experiment, the animals were sacrificed and the tumors were excised and weighed.

[3] = test system: DBA/1 mice with collagen-induced arthritis; assay: Collagen-induced arthritis (CIA) model; settings: for CIA severity; bone and cartilage damage: 5 mg/kg i.p. daily 14 days, free peptides
Protocol: Animal studies were performed by Bolder BioPATH (Boulder, Colo., USA). CIA was induced in male 6- to 7-week-old DBA/1 mice by immunization with bovine type II collagen. Briefly, mice were injected intradermally with 100 μl of Freund's complete adjuvant containing 250 μg of bovine type II collagen (2 mg/ml final concentration) at the base of the tail on day 0 and again on day 21. On day 24, mice were randomized by body weight into treatment groups. […] Mice were weighed on study days 24, 26, 28, 30, 32, 34, 36 and 38 (prior to necropsy). Daily clinical scores were given on a scale of 0-5 for each of the paws on days 24-38. On day 38, mice were killed for necropsy.
At the end of study, fore paws, hind paws and knees were harvested, fixed in 10% neutral buffered formalin for 1-2 days, and then decalcified in 5% formic acid for 4-5 days before standard processing for paraffin embedding. Sections (8 μm) were cut and stained with toluidine blue (T blue). Hind paws, fore paws and knees were embedded and sectioned in the frontal plane. Six joints from each animal were processed for histopathological evaluation. The joints were then assessed using 0-5 scale for inflammation, pannus formation, cartilage damage, bone resorption and periosteal new bone formation. A summed histopathology score (sum of five parameters, 0-25 scale) was also determined.
Animal studies were performed by Bolder BioPATH (Boulder, Colo., USA). CIA was induced in male 6- to 7-week-old DBA/1 mice by immunization with bovine type II collagen. Briefly, mice were injected intradermally with 100 μl of Freund's complete adjuvant containing 250 μg of bovine type II collagen (2 mg/ml final concentration) at the base of the tail on day 0 and again on day 21. On day 24, mice were randomized by body weight into treatment groups. […] Starting day 24, mice were injected i.p. intraperitoneally daily for 14 consecutive days with 5 mg/kg G-KV21, G-HV21, G-TE21, M-TK32 and M-VE32 or with PBS (vehicle). Mice were weighed on study days 24, 26, 28, 30, 32, 34, 36 and 38 (prior to necropsy). Daily clinical scores were given on a scale of 0-5 for each of the paws on days 24-38. On day 38, mice were killed for necropsy.

[4] = test system: mice with collagen-induced arthritis (CIA); assay: collagen-induced arthritis (CIA) in mice; settings: for tolerability in arthritic mice (body weight changes) / arthritis (clinical arthritis score): CIA mice; for tolerability in arthritic mice (body weight changes): day 24 to day 38; for arthritis (clinical arthritis score): treatment days 24-38
Source text: As described herein, starting on day 24 after immunization, mice with CIA were intraperitoneally (i.p.) administered daily for 14 consecutive days with vehicle (black diamonds), dexamethasone (black squares), GF9 (white circles), GF9-LPC (black circles) and GA/E31-LPC (half black half white circles) at indicated doses. Daily clinical scores were given on a scale of 0-5 for each of the paws on days 24-38. On day 38, mice were killed and the histopathological examination of mouse joints was performed. Histopathological scores of inflammation (I), pannus (P), cartilage damage (CD), bone resorption (BR) and periosteal new bone formation (PBF) are shown. Summed histopathology scores were calculated as the sum of all five histopathological parameters. All results are expressed as the mean±SEM (n=10 mice per group).
Mouse body weight (BW) was measured every other day from day 24 to day 38. Mean BW changes were calculated as a percentage of the difference between beginning (day 24) and final (day 38) BWs of the CIA mice intraperitoneally (i.p.) treated daily for 14 consecutive days with vehicle, dexamethasone, GF9, GF9-LPC and GA/E31-LPC at indicated doses. All results are expressed as the mean±SEM (n=10 mice per group).
Plasma was collected on days 24, 30 and 38 from arthritic mice treated with vehicle (black diamonds), GF9 (white circles), GF9-LPC (black circles) and GA/E31-LPC (half black half white circles). Plasma samples were analyzed for concentrations of interleukin-1b (IL-1b), IL-6, and colony-stimulating factor 1 (CSF1). Results are expressed as the mean±SEM (n=5 mice per group).

[5] = tolerability in healthy mice (body weight); type: in vivo
Protocol: As described herein, healthy C57BL/6 mice were intraperitoneally (i.p.) administered daily for 7 consecutive days with GF9 at indicated doses Mouse body weight (BW) was measured daily.

[6] = 400 mg/kg, free form, healthy mice
[7] = healthy C57BL/6 mice, average weights

SMILES	tumor growth [1]	MTD [2, 6]	behaviour on ultracentrifugation of delipoproteinized mouse serum (mouse lipoproteins)	behaviour on ultracentrifugation of whole mouse serum (mouse lipoproteins)	tumor growth (H292 and A549 xenografts)	CIA severity; bone and cartilage damage [3]	tolerability in arthritic mice (body weight changes) [4]	arthritis (clinical arthritis score) [4]	toxicity in healthy mice [5, 7]	MTD [2]	toxicity / tolerability in cancer mice (H292 and A549 xenografts; in vivo)	toxicity / tolerability in arthritic mice ([3]; mouse, in vivo, ip)	penetration of the synovial membrane ([4]; mouse, in vivo)	MTD at 168 h ([5]; C57BL/6, mouse, in vivo, ip)	dose tolerated by healthy mice ([5]; healthy mice, GF9 i.p. daily for 7 consecutive days)	toxicity in healthy mice ([5]; mouse, in vivo)
CC(C)C[C@H](NC(=O)[C@H](Cc1ccccc1)NC(=O)CN)C(=O)N[C@@H](CO)C(=O)N[C@@H](CCCCN)C(=O)N[C@@H](CO)C(=O)N[C@@H](CC(C)C)C(=O)N[C@H](C(=O)N[C@@H](Cc1ccccc1)C(=O)NCC(=O)N[C@@H](CCC(=O)O)C(=O)N[C@@H](CCC(=O)O)C(=O)N[C@@H](CC[S+](C)[O-])C(=O)N[C@@H](CCCNC(=N)N)C(=O)N[C@@H](CC(=O)O)C(=O)N[C@@H](CCCNC(=N)N)C(=O)N[C@@H](C)C(=O)N[C@@H](CCCNC(=N)N)C(=O)N[C@@H](C)C(=O)N[C@@H](Cc1c[nH]cn1)C(=O)N[C@H](C(=O)O)C(C)C)C(C)C (some centres unmarked) [G-HV21] (HELM PEPTIDE1{G.F.L.S.K.S.L.V.F.G.E.E.[CS(=O)CC[C@H](N[*:1])C(=O)[*:2]].R.D.R.A.R.A.H.V}$$$$V2.0)	inhibit tumor growth in three human PC xenograft mouse models	≥ 400 mg/kg	sedimentate with serum proteins	floatation of these peptides with mouse lipoproteins	inhibit tumor growth in two human NSCLC xenograft mouse models	ameliorate CIA and protect against bone and cartilage damage	well-tolerated by arthritic mice	ameliorate the disease	No toxicity was observed	–	–	–	–	–	–	–
CC(C)C[C@H](NC(=O)[C@H](Cc1ccccc1)NC(=O)CN)C(=O)N[C@@H](CO)C(=O)N[C@@H](CCCCN)C(=O)N[C@@H](CO)C(=O)N[C@@H](CC(C)C)C(=O)N[C@H](C(=O)N[C@@H](Cc1ccccc1)C(=O)O)C(C)C [GF9] (H-GFLSKSLVF-OH)	–	–	–	sedimentate with serum proteins	–	–	–	–	–	≥ 300 mg/kg	non-toxic and well-tolerable by cancer mice	non-toxic and well-tolerable by arthritic mice	penetrate the synovial membrane	≥ 300 mg/kg	up to 300 mg/kg	non-toxic
CC(C)C[C@H](NC(=O)[C@H](Cc1ccccc1)NC(=O)CN)C(=O)N[C@@H](CO)C(=O)N[C@@H](CCCCN)C(=O)N[C@@H](CO)C(=O)N[C@@H](CC(C)C)C(=O)N[C@H](C(=O)N[C@@H](Cc1ccccc1)C(=O)N[C@@H](Cc1c[nH]c2ccccc12)C(=O)N[C@@H](CCC(N)=O)C(=O)N[C@@H](CCC(=O)O)C(=O)N[C@@H](CCC(=O)O)C(=O)N[C@@H](CC[S+](C)[O-])C(=O)N[C@@H](CCC(=O)O)C(=O)N[C@@H](CC(C)C)C(=O)N[C@@H](Cc1ccc(O)cc1)C(=O)N[C@@H](CCCNC(=N)N)C(=O)N[C@@H](CCC(N)=O)C(=O)N[C@@H](CCCCN)C(=O)N[C@H](C(=O)O)C(C)C)C(C)C (some centres unmarked) [G-KV21] (HELM PEPTIDE1{G.F.L.S.K.S.L.V.F.W.Q.E.E.[CS(=O)CC[C@H](N[*:1])C(=O)[*:2]].E.L.Y.R.Q.K.V}$$$$V2.0)	inhibit tumor growth in three human PC xenograft mouse models	≥ 400 mg/kg	sedimentate with serum proteins	floatation of these peptides with mouse lipoproteins	inhibit tumor growth in two human NSCLC xenograft mouse models	ameliorate CIA and protect against bone and cartilage damage	well-tolerated by arthritic mice	ameliorate the disease	No toxicity was observed	–	–	–	–	–	–	–
